Columns and labels:
Set-up in all cases: purchased Milipore (Millipore)
[1] = target: T1, Human adrenergic α2B receptor (Homo sapiens, UniProt P18089); assay: Radioligand binding, adrenergic α2B (Protocol Group B); settings: for inhibition at 0.01 µM: 10 nM compound, read-out: Percentage inhibition of ligand binding, Adrenergic α2B (10 nM); for inhibition at 0.03 µM: 30 nM compound, read-out: Percentage inhibition of ligand binding, Adrenergic α2B (30 nM); for Ki: estimated Ki, read-out: Ki α2B
T1 sequence (P18089 1-450): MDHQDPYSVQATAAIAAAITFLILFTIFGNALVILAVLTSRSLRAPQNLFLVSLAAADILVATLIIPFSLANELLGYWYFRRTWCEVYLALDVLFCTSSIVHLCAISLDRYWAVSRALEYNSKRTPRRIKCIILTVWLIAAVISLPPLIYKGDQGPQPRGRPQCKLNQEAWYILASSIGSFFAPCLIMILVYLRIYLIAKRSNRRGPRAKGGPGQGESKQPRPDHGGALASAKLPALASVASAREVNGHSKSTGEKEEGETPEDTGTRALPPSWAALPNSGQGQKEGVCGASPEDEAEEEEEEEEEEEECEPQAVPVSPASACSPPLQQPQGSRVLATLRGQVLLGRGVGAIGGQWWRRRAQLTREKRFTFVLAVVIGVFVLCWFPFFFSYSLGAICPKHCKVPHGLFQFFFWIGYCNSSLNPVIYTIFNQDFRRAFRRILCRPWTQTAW
Procedure, shortened: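 Compounds at various concentrations in 1% DMSO were tested on recombinant membranes in Tris-HCl pH 7.4 buffer containing MgCl2, CaCl2 and 0.2% BSA.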

[2] = target: T2, Human adrenergic α2A receptor (Homo sapiens, UniProt P08913); assay: Radioligand binding, adrenergic α2A (Protocol Group B); settings: for inhibition at 0.1 µM: 0.1 μM compound, read-out: Percentage inhibition of ligand binding, Adrenergic α2A (0.1 μM); for inhibition at 0.1 µM / inhibition at 0.3 µM / Ki: Protocol Group B; for inhibition at 0.3 µM: 0.3 μM compound, read-out: Percentage inhibition of ligand binding, Adrenergic α2A (0.3 μM); for Ki: estimated Ki
T2 sequence (P08913 1-465): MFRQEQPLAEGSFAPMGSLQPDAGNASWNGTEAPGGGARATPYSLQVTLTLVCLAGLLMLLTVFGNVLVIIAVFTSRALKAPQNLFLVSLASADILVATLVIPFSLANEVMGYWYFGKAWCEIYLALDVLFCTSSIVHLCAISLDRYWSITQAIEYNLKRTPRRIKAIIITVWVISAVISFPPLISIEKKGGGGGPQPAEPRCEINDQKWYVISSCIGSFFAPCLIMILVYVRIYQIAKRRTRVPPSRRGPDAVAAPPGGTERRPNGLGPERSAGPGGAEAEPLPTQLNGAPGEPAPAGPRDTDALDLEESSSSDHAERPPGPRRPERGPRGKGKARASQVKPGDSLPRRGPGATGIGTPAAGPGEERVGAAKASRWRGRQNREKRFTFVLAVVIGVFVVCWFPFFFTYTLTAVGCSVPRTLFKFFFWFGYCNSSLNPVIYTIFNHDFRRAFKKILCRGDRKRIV
Procedure, shortened: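 Compounds (1% DMSO vehicle, various concentrations) competed against 2 nM [^3H]MK-912 on recombinant receptor membranes for 60 min at 25° C, Tris-HCl pH 7.4 buffer with Mg2+, Ca2+, BSA. Bound radioligand filtered and counted; 10 μM rauwolscine set nonspecific binding. Values: percent inhibition of specific binding or estimated Ki.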

[3] = target: T3, Human adrenergic α1B receptor (Homo sapiens, UniProt P35368); assay: Radioligand binding, adrenergic α1B (Protocol Group B); settings: for inhibition at 0.1 µM: 0.1 μM compound, read-out: Percentage inhibition of ligand binding, Adrenergic α1B (0.1 μM); for inhibition at 0.1 µM / inhibition at 0.3 µM / Ki: Protocol Group B; for inhibition at 0.3 µM: 0.3 μM compound, read-out: Percentage inhibition of ligand binding, Adrenergic α1B (0.3 μM); for Ki: estimated Ki
T3 sequence (P35368 1-520): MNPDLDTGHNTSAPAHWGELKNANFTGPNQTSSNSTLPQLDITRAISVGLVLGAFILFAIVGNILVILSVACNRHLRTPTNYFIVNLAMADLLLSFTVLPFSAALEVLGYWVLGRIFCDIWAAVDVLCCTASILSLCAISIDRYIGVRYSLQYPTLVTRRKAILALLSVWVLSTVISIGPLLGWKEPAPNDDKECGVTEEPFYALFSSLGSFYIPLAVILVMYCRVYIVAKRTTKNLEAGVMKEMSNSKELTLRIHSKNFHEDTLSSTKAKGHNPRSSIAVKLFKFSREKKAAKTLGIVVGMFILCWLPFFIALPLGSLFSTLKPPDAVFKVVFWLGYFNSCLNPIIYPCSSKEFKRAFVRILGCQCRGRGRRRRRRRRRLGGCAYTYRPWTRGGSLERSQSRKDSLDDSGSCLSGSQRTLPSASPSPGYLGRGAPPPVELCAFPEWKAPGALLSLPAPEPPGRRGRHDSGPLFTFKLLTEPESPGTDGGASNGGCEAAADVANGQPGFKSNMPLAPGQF
Procedure, shortened: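 Values are percent inhibition of specific [3H]prazosin (0.3 nM) binding or estimated Ki, from filtration counting. Human α1B recombinant membranes, Tris-HCl pH 7.4 buffer with MgCl2 and EDTA, 60 min at 25 °C, 1% DMSO vehicle; 10 μM prazosin defined nonspecific binding.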

Work on `Cc1ccc2c(c1)c1c(n2CC(O)c2ccncc2)CC[N+]2([O-])CCCC12` (centres unmarked) [compound 23, 7-(2-hydroxy-2-(pyridin-4-yl)ethyl)-10-methyl-1,2,3,4,5,6,7,11c-octahydroindolizino[7,8-b]indole 4-oxide] yielded an inhibition at 0.0001 µM ([1]; 0.1 nM compound, concentration series, read-out: Percentage inhibition of ligand binding, Adrenergic α2B, 0.1 nM) of 13%, an inhibition at 0.00032 µM ([1]; 0.32 nM compound, concentration series, read-out: Percentage inhibition of ligand binding, Adrenergic α2B, 0.32 nM) of 5% and an inhibition at 0.001 µM ([1]; 1 nM compound, concentration series, read-out: Percentage inhibition of ligand binding, Adrenergic α2B, 1 nM) of 2%. For the same molecule, the inhibition at 0.0032 µM ([1]; 3.2 nM compound, concentration series, read-out: Percentage inhibition of ligand binding, Adrenergic α2B, 3.2 nM) was 40%, the inhibition at 0.01 µM ([1]; Protocol Group B) was 65% and the inhibition at 0.03 µM ([1]; Protocol Group B) was 88%. The inhibition at 0.1 µM ([1]; 0.1 μM compound, Protocol Group B, read-out: Percentage inhibition of ligand binding, Adrenergic α2B (0.1 μM)) was 92%, the inhibition at 0.32 µM ([1]; 0.32 μM compound, concentration series, read-out: Percentage inhibition of ligand binding, Adrenergic α2B, 0.32 μM) was 105% and the Ki ([1]; Protocol Group B) was 0.00224 µM. The inhibition at 0.0032 µM ([2]; 3.2 nM compound, concentration series, read-out: Percentage inhibition of ligand binding, Adrenergic α2A, 3.2 nM) was 14%, the inhibition at 0.01 µM ([2]; 10 nM compound, concentration series, read-out: Percentage inhibition of ligand binding, Adrenergic α2A, 10 nM) was 21% and the inhibition at 0.03 µM ([2]; 0.03 μM compound, concentration series, read-out: Percentage inhibition of ligand binding, Adrenergic α2A, 0.03 μM) was 37%. The inhibition at 0.1 µM [2] was 55%, the inhibition at 0.3 µM [2] was 64% and the inhibition at 0.32 µM ([2]; 0.32 μM compound, concentration series, read-out: Percentage inhibition of ligand binding, Adrenergic α2A, 0.32 μM) was 67%. The inhibition at 1 µM ([2]; 1 μM compound, concentration series, read-out: Percentage inhibition of ligand binding, Adrenergic α2A, 1 μM) was 76%, the inhibition at 3.2 µM ([2]; 3.2 μM compound, concentration series, read-out: Percentage inhibition of ligand binding, Adrenergic α2A, 3.2 μM) was 88% and the inhibition at 10 µM ([2]; 10 μM compound, concentration series, read-out: Percentage inhibition of ligand binding, Adrenergic α2A, 10 μM) was 92%. The Ki [2] was 0.0208 µM, the inhibition at 0.0032 µM ([3]; 3.2 nM compound, concentration series, read-out: Percentage inhibition of ligand binding, Adrenergic α1B, 3.2 nM) was 21% and the inhibition at 0.01 µM ([3]; 10 nM compound, concentration series, read-out: Percentage inhibition of ligand binding, Adrenergic α1B, 10 nM) was 22%. The inhibition at 0.03 µM ([3]; 0.03 μM compound, concentration series, read-out: Percentage inhibition of ligand binding, Adrenergic α1B, 0.03 μM) was 32%, the inhibition at 0.1 µM [3] was 53% and the inhibition at 0.3 µM [3] was 65%. It also gave an inhibition at 0.32 µM ([3]; 0.32 μM compound, concentration series, read-out: Percentage inhibition of ligand binding, Adrenergic α1B, 0.32 μM) of 64%, an inhibition at 1 µM ([3]; 1 μM compound, concentration series, read-out: Percentage inhibition of ligand binding, Adrenergic α1B, 1 μM) of 72% and an inhibition at 3.2 µM ([3]; 3.2 μM compound, concentration series, read-out: Percentage inhibition of ligand binding, Adrenergic α1B, 3.2 μM) of 85%. For the same molecule, the inhibition at 10 µM ([3]; 10 μM compound, concentration series, read-out: Percentage inhibition of ligand binding, Adrenergic α1B, 10 μM) was 93% and the Ki [3] was 0.0564 µM.

Molecule `Cc1ccc2c(c1)c1c(n2C[C@@H](OC2CCCC2)c2ccncc2)CCN2CCC[C@H]12` [compound 82, (11cR)-7-[(25)-2-(cyclopentoxy)-2-(4-pyridyl)ethyl]-10-methyl-1,2,3,5,6,11c-hexahydroindolizino[7,8-b]indole] has an inhibition at 0.01 µM ([1]; Protocol Group B) of 98%, an inhibition at 0.03 µM ([1]; Protocol Group B) of 99% and a Ki ([1]; Protocol Group B) of 0.00159 µM. The inhibition at 0.1 µM [2] was 92%, the inhibition at 0.3 µM [2] was 97% and the Ki [2] was 0.0045 µM. The inhibition at 0.1 µM [3] was 56%, the inhibition at 0.3 µM [3] was 81% and the Ki [3] was 0.0327 µM.
